Assay results as given in patent US12448395B2 (BRISTOL-MYERS SQUIBB COMPANY, priority 2019, dated 2025).

Legend:
human TLR7 = target: T1, human TLR7 (Homo sapiens, UniProt Q9NYK1); assay: TLR7 inhibition reporter assay (HEK-Blue SEAP, gardiquimod stimulation); type: cell-based; conditions: HEK-Blue cells overexpressing human TLR7, gardiquimod 7.5 μM
T1 sequence (Q9NYK1 27-1049): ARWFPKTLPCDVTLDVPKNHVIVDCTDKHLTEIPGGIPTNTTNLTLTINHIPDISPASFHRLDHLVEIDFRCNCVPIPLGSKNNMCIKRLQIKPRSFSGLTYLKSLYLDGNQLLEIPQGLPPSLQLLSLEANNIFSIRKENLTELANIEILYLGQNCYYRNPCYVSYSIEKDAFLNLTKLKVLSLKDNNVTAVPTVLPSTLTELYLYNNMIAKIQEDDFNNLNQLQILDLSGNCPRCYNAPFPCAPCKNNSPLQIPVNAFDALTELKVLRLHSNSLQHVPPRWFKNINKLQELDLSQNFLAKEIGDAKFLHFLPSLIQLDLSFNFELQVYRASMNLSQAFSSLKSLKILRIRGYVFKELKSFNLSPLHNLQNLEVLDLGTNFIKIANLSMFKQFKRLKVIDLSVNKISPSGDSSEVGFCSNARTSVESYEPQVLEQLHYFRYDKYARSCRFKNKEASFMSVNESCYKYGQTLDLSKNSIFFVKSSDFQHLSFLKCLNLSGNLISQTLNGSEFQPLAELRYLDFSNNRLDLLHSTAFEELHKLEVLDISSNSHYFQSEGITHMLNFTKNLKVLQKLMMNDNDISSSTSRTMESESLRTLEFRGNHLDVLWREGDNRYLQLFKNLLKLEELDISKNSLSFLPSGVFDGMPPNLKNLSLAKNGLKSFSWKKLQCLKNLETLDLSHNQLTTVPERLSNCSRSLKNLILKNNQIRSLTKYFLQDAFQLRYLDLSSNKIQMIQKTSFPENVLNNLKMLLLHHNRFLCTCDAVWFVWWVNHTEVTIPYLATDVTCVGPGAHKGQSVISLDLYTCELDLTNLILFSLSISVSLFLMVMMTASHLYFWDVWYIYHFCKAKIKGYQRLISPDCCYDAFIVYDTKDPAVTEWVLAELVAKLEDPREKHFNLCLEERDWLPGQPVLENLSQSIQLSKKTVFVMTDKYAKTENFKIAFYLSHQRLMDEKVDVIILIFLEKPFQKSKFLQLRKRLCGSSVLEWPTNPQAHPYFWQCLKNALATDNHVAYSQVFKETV
Description: (§1) TLR7/8/9 Inhibition Reporter Assays
(§2) HEK-Blue™-cells (Invivogen) overexpressing human TLR7, TLR8 or TLR9 receptors were used for screening inhibitors of these receptors using an inducible SEAP (secreted embryonic alkaline phosphatase) reporter gene under the control of the IFN-β minimal promoter fused to five NF-κB and AP-1-binding sites. Briefly, cells are seeded into Greiner 384 well plates (15000 cells per well for TLR7, 20,000 for TLR8 and 25,000 for TLR9) and then treated with test compounds in DMSO to yield a final dose response concentration range of 0.05 nM-50 μM. After a 30 minute compound pre-treatment at room temperature, the cells are then stimulated with a TLR7 ligand (gardiquimod at a final concentration of 7.5 μM), TLR8 ligand (R848 at a final concentration of 15.9 μM) or TLR9 ligand (ODN2006 at a final concentration of 5 nM) to activate NF-κB and AP-1 which induce the production of SEAP. After a 22 hour incubation at 37° C., 5% CO2, SEAP levels are determined with the addition of HEK-Blue™ Detection reagent (Invivogen), a cell culture medium that allows for detection of SEAP, according to manufacturer's specifications. The percent inhibition is determined as the % reduction in the HEK-Blue signal present in wells treated with agonist plus DMSO alone compared to wells treated with a known inhibitor.

human TLR8 = target: T2, human TLR8 (Homo sapiens, UniProt Q9NR97); assay: TLR8 inhibition reporter assay (HEK-Blue SEAP, R848 stimulation); type: cell-based; conditions: HEK-Blue cells overexpressing human TLR8, R848 15.9 μM
T2 sequence (Q9NR97 27-1041): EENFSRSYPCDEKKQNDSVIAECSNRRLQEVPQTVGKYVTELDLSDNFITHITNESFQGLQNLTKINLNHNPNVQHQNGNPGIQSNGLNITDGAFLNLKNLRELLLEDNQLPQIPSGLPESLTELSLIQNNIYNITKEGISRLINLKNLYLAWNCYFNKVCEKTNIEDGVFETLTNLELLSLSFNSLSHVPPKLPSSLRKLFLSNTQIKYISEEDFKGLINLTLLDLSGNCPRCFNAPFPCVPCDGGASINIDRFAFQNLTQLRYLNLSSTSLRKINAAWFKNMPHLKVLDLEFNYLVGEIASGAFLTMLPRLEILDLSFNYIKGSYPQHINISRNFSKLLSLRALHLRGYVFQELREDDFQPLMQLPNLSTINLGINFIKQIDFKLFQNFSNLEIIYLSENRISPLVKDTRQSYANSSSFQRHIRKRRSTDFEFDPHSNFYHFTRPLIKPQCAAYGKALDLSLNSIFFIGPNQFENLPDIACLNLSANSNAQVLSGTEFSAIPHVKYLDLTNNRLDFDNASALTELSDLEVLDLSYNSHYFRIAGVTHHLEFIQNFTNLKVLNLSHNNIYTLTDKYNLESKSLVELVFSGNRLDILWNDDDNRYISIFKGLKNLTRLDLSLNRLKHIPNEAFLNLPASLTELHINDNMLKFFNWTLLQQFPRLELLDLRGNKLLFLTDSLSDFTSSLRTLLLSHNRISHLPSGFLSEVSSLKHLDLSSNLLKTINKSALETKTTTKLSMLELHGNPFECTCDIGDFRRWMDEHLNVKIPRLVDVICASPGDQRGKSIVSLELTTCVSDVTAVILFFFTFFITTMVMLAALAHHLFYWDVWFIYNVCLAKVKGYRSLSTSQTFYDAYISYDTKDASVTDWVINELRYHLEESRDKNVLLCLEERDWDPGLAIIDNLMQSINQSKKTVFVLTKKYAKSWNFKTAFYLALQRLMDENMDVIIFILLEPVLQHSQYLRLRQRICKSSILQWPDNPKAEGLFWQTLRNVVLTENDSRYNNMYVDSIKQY
Description: as §1, §2

TLR7 = target: T3, TLR7 (Mus musculus, UniProt P58681); assay: In vivo mouse TLR7 PD model (gardiquimod-induced plasma IL-6 and IFN-alpha); conditions: C57BL/6 mice, 90 min after gardiquimod
T3 sequence (P58681 27-1050): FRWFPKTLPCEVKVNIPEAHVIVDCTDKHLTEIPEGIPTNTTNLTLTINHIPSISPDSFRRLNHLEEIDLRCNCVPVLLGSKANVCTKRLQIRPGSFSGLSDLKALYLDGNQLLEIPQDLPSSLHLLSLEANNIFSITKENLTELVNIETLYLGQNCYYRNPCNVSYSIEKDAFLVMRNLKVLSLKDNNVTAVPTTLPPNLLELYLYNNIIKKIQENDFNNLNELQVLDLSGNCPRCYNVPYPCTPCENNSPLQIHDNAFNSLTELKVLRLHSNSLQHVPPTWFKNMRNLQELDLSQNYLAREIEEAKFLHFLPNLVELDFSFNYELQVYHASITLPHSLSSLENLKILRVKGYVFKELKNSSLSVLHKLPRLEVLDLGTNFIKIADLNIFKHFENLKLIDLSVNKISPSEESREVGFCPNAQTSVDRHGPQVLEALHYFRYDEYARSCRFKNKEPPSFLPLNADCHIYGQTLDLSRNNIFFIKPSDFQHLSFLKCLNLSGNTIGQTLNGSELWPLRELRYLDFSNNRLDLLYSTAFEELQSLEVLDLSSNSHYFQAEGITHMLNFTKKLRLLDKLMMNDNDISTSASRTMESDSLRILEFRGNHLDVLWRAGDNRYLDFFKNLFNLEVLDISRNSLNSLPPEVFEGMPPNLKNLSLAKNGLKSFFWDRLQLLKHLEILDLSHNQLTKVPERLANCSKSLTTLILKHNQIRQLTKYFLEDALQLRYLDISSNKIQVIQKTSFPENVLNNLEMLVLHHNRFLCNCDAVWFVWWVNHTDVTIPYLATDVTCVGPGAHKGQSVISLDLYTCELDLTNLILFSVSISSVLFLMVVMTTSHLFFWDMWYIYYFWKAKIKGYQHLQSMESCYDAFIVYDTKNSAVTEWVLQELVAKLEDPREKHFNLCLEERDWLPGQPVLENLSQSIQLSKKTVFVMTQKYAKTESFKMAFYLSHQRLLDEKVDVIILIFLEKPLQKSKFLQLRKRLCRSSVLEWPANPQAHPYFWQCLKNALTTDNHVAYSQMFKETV
Description: In Vivo Mouse TLR7 PD Model:
Adult male C57BL/6 mice were used for the experiments. Mice (7 to 10 per group) were randomized into different treatment groups based on body weight. Mice from the respective treatment groups were administered orally with vehicle or test compound. Thirty min after the oral administration of vehicle or test compound, mice were challenged with intraperitoneal injection of gardiquimod for TLR7 PD model. Ninety minutes after gardiquimod injection, mice were bled under isoflurane anaesthesia and plasma IL-6 and IFN-alpha levels were estimated by using commercially available ELISA kit (BD Biosciences, PBL Life Sciences). At the end of experiment, mean cytokine data was plotted and one way ANOVA with Dunnett's test was performed to calculate the significance of test compound treated group vs. vehicle control group. Percent inhibition of cytokine induction was calculated for test compound treated group vs vehicle control group.

| Compound | IC50 (human TLR7) | IC50 (human TLR8) | % inhibition of IFN-alpha (TLR7; oral dose 0.001 mg/kg) | % inhibition of IL6 (TLR7; oral dose 0.001 mg/kg) | % inhibition of IFN-alpha (TLR7; oral dose 0.005 mg/kg) | % inhibition of IL6 (TLR7; oral dose 0.005 mg/kg) | % inhibition of IFN-alpha (TLR7; oral dose 0.025 mg/kg) | % inhibition of IL6 (TLR7; oral dose 0.025 mg/kg) | % inhibition of IFN-alpha (TLR7; oral dose 0.050 mg/kg) | % inhibition of IL6 (TLR7; oral dose 0.050 mg/kg) |
| --- | --- | --- | --- | --- | --- | --- | --- | --- | --- | --- |
| Cc1cc(-c2[nH]c3sc(N4CCN(C5CCC5)C[C@H]4C)nc3c2C(C)C)cn2ncnc12 [Example 362, (R)-2-(4-cyclobutyl-2-methylpiperazin-1-yl)-6-isopropyl-5-(8-methyl-[1,2,4]triazolo[1,5-a]pyridin-6-yl)-4H-pyrrolo[3,2-d]thiazole] | > 3.13 µM | > 3.13 µM | – | – | – | – | – | – | – | – |
| COc1cc(-c2c(C(C)C)c3nc(C4CCN(CC(F)(F)F)CC4)sc3n2CC(F)(F)F)cn2ncnc12 [Example 9, 6-isopropyl-5-(8-methoxy-[1,2,4]triazolo[1,5-a]pyridin-6-yl)-4-(2,2,2-trifluoroethyl)-2-(1-(2,2,2-trifluoroethyl)piperidin-4-yl)-4H-pyrrolo[3,2-d]thiazole] | > 3.13 µM | > 3.13 µM | – | – | – | – | – | – | – | – |
| COc1cc(-c2[nH]c3sc(C4CCC(NC5COC5)CC4)nc3c2C(C)C)cn2ncnc12 (single isomer, unassigned) [Example 65, N-(4-(6-isopropyl-5-(8-methoxy-[1,2,4]triazolo[1,5-a]pyridin-6-yl)-4H-pyrrolo[3,2-d]thiazol-2-yl)cyclohexyl)oxetan-3-amine] | – | – | 50% | 21% | 63% | 42% | 97% | 78% | 99% | 94% |
